The values that follow come from the Deep4Chem optical property database.

The series in a line: photoluminescence quantum yield (fraction); solvent given as SMILES.
The mark [1] stands for this setting: in O=P(c1ccccc1)(c1ccccc1)c1ccccc1Oc1ccccc1P(=O)(c1ccccc1)c1ccccc1.

`c1ccc(-p2c(-c3cccs3)cc3ccccc32)cc1` (centres undefined) had a photoluminescence quantum yield (in C1CCOC1) of 0.07.
As for `Cc1ccc(-c2nc(-c3cccc(C#N)c3)[nH]c2-c2ccc(C)cc2)cc1`, under “in CO”, the photoluminescence quantum yield was 0.17.
In turn, `CCCN1c2ccccc2Sc2cc(/C=C\c3cc(=O)oc4c(O)c(O)ccc34)ccc21` returned a photoluminescence quantum yield (in ClC(Cl)Cl) of 0.37.
For the setting “in ClCCl”, `Cc1cccc(-c2cnc3ccc4ccccc4n23)c1` showed a photoluminescence quantum yield of 0.55.
The compound `c1cc2ccc3ccc(-c4ccc(-c5nnc(-c6ccc(-c7nnc(-c8ccc(-c9ccc%10ccc%11cccc%12ccc9c%10c%11%12)s8)o7)cc6)o5)s4)c4ccc(c1)c2c34` returned a photoluminescence quantum yield (in ClC(Cl)Cl) of 0.06.
`CC(C)(C)c1ccc(-c2c3ccccc3c3n2[B-](F)(F)[N+]2=Cc4c5ccccc5c(-c5ccc(C(C)(C)C)cc5)n4[B-](F)(F)[N+]2=C3)cc1` yielded a photoluminescence quantum yield (in CC#N) of 0.26; a photoluminescence quantum yield (in CCCCCC) of 0.34; a photoluminescence quantum yield (in CN(C)C=O) of 0.28; a photoluminescence quantum yield (in Cc1ccccc1) of 0.34; a photoluminescence quantum yield (in ClCCl) of 0.34.
Compound `Cc1cc(C)c(B2c3cc(C(C)(C)C)cc4c5ccccc5c5c6ccccc6c6cc(C(C)(C)C)cc2c6c5c34)c(C)c1` returned a photoluminescence quantum yield (in C1CCCCC1) of 0.7.
`Cc1ccc(C)cc1` yielded a photoluminescence quantum yield (in C1CCCCC1) of 0.39.
In turn, `COc1cc(-c2cnc(-c3cnc4ccccc4c3)o2)cc(OC)c1OC` came in with a photoluminescence quantum yield (in ClCCl) of 0.76.
Turning to `CCN(C)c1ccc(C2=C3C(C)=CC(/C=C/c4ccc(OCC(=O)OC)cc4)=[N+]3[B-](F)(F)n3c(C)cc(C)c32)cc1`, for the setting “in CO”, the photoluminescence quantum yield came out at 0.78.
Consider `c1cc2ccc3ccc4cc3c2cc1c1ccc2ccc3ccc(cc3c2c1)c1ccc2c(c1)c1cc4ccc1[C@]13OCCO[C@]21OCCO3`, for which the photoluminescence quantum yield (in Cc1ccccc1) came out at 0.78.
As to `COCCOCCOCCOCCOc1ccc(OCCOCCOCCOCCOC)c(C=O)c1`, the photoluminescence quantum yield reads like this: (in CC(C)(C)O) 0.19; (in CC(C)CO) 0.29; (in CC(C)O) 0.24; (in CCCCO) 0.32; (in CCCO) 0.27; (in CCO) 0.25. In addition, the photoluminescence quantum yield worked out at 0.02 (in CN(C)C=O); 0.1 (in CNC=O); 0.22 (in CO); 0.43 (in NC=O); 0.11 (in O).
Regarding `N#Cc1ccc(C#Cc2ccc3ccc4ccc(C#Cc5ccc(C#N)cc5)c5ccc2c3c45)cc1`, the photoluminescence quantum yield (in CCCCCC) was found to be 0.8, the photoluminescence quantum yield (in CO) turned out to be 0.734 and the photoluminescence quantum yield (in ClCCl) stood at 0.732.
As to `c1ccc(-c2nc(-c3ccc(N4c5ccccc5C(c5ccccc5)(c5ccccc5)c5ccccc54)cc3)cc(-c3ccc(N4c5ccccc5C(c5ccccc5)(c5ccccc5)c5ccccc54)cc3)n2)cc1`, the photoluminescence quantum yield came out at 0.5 (in Cc1ccccc1) and 0.94 (in O=P(c1ccccc1)(c1ccccc1)c1ccc2oc3ccc(P(=O)(c4ccccc4)c4ccccc4)cc3c2c1).
For `Oc1c(-c2cccs2)cccc1-c1nc2ccccc2s1`, the photoluminescence quantum yield amounted to 0.0075 (in CCO), 0.017 (in ClCCl) and 0.01 (in O).
For `CC1(C)c2cccc(-c3nc(-c4ccccc4)nc(-c4ccccc4)n3)c2Oc2c(-n3c4ccccc4c4ccccc43)cccc21`, the photoluminescence quantum yield (in Cc1ccccc1) was determined as 0.059.
As to `CC1=C(c2ccccc2)C(C)=[N+]2C1=C(c1c(-c3ccccn3)nc3ccccn13)c1c(C)c(-c3ccccc3)c(C)n1[B-]2(F)F`, under “in ClCCl”, the photoluminescence quantum yield was determined as 0.785.
The same measure, in the same setting: the same measure for `FC(F)(F)c1ccc(B2c3ccccc3Nc3ccccc32)c(C(F)(F)F)c1`: 0.9.
`N#Cc1c(C#N)c2cc(Br)ccc2c2ccc(Br)cc12` showed a photoluminescence quantum yield (in ClC(Cl)Cl) of 0.01.
The compound `COC(=O)C1=C(C(=O)OC)C2(c3ccccc3-c3c(Br)cc(Br)cc32)C2(/C=C/c3ccccc3)c3cc(OC)c(OC)cc3CCN12` (centres undefined) registered a photoluminescence quantum yield (in ClCCl) of 0.00091.
`N#Cc1c(C#N)c2cc(F)ccc2c2ccc(F)cc12` had a photoluminescence quantum yield (in ClC(Cl)Cl) of 0.08.
Regarding `CC(C)[Si](C#Cc1ccc(C#C[Si](C(C)C)(C(C)C)C(C)C)c2nc3cc4c(cc3nc12)[C@H]1c2ccccc2[C@@H]4c2ccccc21)(C(C)C)C(C)C`, the photoluminescence quantum yield came out at 0.02 (in CCCCCC) and 0.02 (in ClCCl).
Consider `CN(C)c1cccc2c1C(=O)c1ccccc1-2`, for which the photoluminescence quantum yield was determined as 0.0016 (in C1CCCCC1), 0.0027 (in CC#N), 0.004 (in CCO) and 0.0024 (in c1ccccc1).
On to `COCCC1=Cc2nc1ccc1[nH]c(cc1CCOC)c1nc(ccc3[nH]c2cc3CCOC)C(CCOC)=C1`, for which the photoluminescence quantum yield (in Cc1ccccc1) was 0.47.
Consider `CCOC(=O)c1c2c3c(ccc(Br)c3c3cc4ccccc4cc13)N(C)C2=O`, for which the photoluminescence quantum yield (in CC#N) came to 0.45.
For `CCCCC(CC)CN1C(=O)c2cc(Oc3ccc(C(C)(C)C)cc3)c3c4c(Oc5ccc(OC)cc5)cc5c6c(cc(Oc7ccc(OC)cc7)c(c7c(Oc8ccc(C(C)(C)C)cc8)cc(c2c37)C1=O)c64)C(=O)N(c1c(C(C)C)cccc1C(C)C)C5=O` (centres undefined), the photoluminescence quantum yield (in Cc1ccccc1) was 0.57.
With `CC[N+](CC)=c1ccc2c(-c3ccccc3C(=O)O)c3c(=O)oc4c5c6c(cc4c3oc-2c1)CCCN6CCC5`, the photoluminescence quantum yield came out at 0.01 (in CCO) and 0.09 (in ClC(Cl)Cl).
Take `CC(C)Nc1cc2c(cc1F)c(=O)c1cc(F)c(NC(C)C)cc1n2C(C)C`: the photoluminescence quantum yield (in CCO) is 0.32.
On to `B1C=Cc2ccc3ccccc3c2N1`, for which the photoluminescence quantum yield (in C1CCCCC1) was 0.61.
As to `c1ccc(-c2nnc(-c3cc(-n4c5ccccc5c5ccccc54)c(-n4c5ccccc5c5ccccc54)cc3-c3nnc(-c4ccccc4)o3)o2)cc1`, the photoluminescence quantum yield (in Cc1ccccc1) was 0.383.
As to `Cc1ccc(C2=C3C=CC([Se]c4ccccc4)=[N+]3[B-](F)(F)n3c([Se]c4ccccc4)ccc32)cc1`, the photoluminescence quantum yield (in C1CCOC1) turned out to be 0.56.
As for `CCOC(=O)COc1ccc(/C=C/C2=C3c4ccccc4C(c4ccc[nH]4)=[N+]3[B-](F)(F)n3ccc(C)c32)cc1`, the photoluminescence quantum yield was 0.003 (in C1CCOC1); 0.003 (in CC#N); 0.009 (in CCCCCC); 0.005 (in CO); 0.004 (in Cc1ccccc1); 0.003 (in ClCCl).
`CN(C)c1ccc(-c2c(/C=C3/C=Cc4ccccc4N3C)c(=O)c2=O)cc1`: the photoluminescence quantum yield by setting is: (in C1CCCCC1) 0.0301; (in Cc1ccccc1) 0.0256; (in ClCCl) 0.001.
Under “in ClC(Cl)Cl”, `c1cc2cc(c1)c1cccc(c1)c1cccc(c1)c1cccc(c1)c1cccc(c1)c1cccc2c1` registered a photoluminescence quantum yield of 0.06.
The compound `c1ccc2c([SiH](c3c4ccccc4cc4ccccc34)c3c4ccccc4cc4ccccc34)c3ccccc3cc2c1` returned a photoluminescence quantum yield (in ClC(Cl)Cl) of 0.028.
The compound `COc1ccc(N2c3ccc4ccccc4c3-c3c4ccccc4cc[n+]3[B-]2(c2ccccc2)c2ccccc2)cc1` yielded a photoluminescence quantum yield (in Cc1ccccc1) of 0.001.
`CC(C)(C)c1ccc(Oc2cc3c4c(cc(Oc5ccc(C(C)(C)C)cc5)c5c6c(Oc7ccc(C(C)(C)C)cc7)cc7c8c(cc(Oc9ccc(C(C)(C)C)cc9)c(c2c45)c86)C(=O)N(c2ccccc2)C7=O)C(=O)N(c2ccccc2)C3=O)cc1`: the photoluminescence quantum yield (in ClC(Cl)Cl) was 0.86.
Turning to `CCOC(=O)c1cc(C(=O)NCc2ccccc2)c2ccc(N(C)C)cc2n1`, the photoluminescence quantum yield (in CCO) is 0.06.
With `N#Cc1cc(C#N)c(-n2c3ccccc3c3c(-c4cccc5c4c4ccccc4n5-c4cc(-n5c6ccccc6c6ccccc65)c(C#N)cc4C#N)cccc32)cc1-n1c2ccccc2c2ccccc21`, under setting [1], the photoluminescence quantum yield turned out to be 0.61.
On to `CC[N+]1(CC)CN2C(=N1)C(C(=O)O)=Cc1cc(SC)ccc12`, for which the photoluminescence quantum yield (in O) turned out to be 0.308.
For the setting “in ClC(Cl)Cl”, `CCCCC1(c2ccc(OC)cc2)Nc2ccccc2N=C1c1ccc(OC)cc1` (centres undefined) yielded a photoluminescence quantum yield of 0.52.
`CC(C)(C)c1ccc2c(c1)oc1nc3oc4ccc(-n5c6ccccc6c6ccccc65)cc4c3cc12` registered a photoluminescence quantum yield (in ClC(Cl)Cl) of 0.075.
Consider `CC1(C)c2cc(-n3c4ccccc4c4ccccc43)ccc2N(c2ccc(-c3cc(-c4ccccc4)nc(-c4ccccc4)n3)cc2)c2ccc(-n3c4ccccc4c4ccccc43)cc21`, for which the photoluminescence quantum yield under setting [1] came to 0.81.
As to `COC(=O)c1ccc(/C=C2\N=C(c3ccc([N+](=O)[O-])cc3)NC2=O)cc1`, the photoluminescence quantum yield (in C1COCCO1) is 0.258.
Take `CCCCCCCCn1c(=O)c2cc3cc4cc5c(=O)n(CCCCCCCC)c(=O)c5cc4c(-c4ccc(N(c5ccccc5)c5ccccc5)cc4)c3cc2c1=O`: the photoluminescence quantum yield (in ClC(Cl)Cl) came to 0.04.
On to `CCOc1ccc2c(-c3nc(-c4cccc(Br)c4)no3)cc(=O)oc2c1`, for which the photoluminescence quantum yield is, setting by setting: (in CCO) 0.52; (in ClC(Cl)Cl) 0.2.
Where the note is “in C1CCOC1”, `C[Si](C)(C)c1ccc(-c2ccc(-c3ccc(-c4ccc(-c5ccc([Si](C)(C)C)cc5)cc4)c4nsnc34)cc2)cc1` showed a photoluminescence quantum yield of 0.84.
As to `CC1(C)C(/C=C/C2=C(c3ccc(C(=O)O)cc3)C(=C/C=C3/N(CCCS(=O)(=O)[O-])c4ccc5ccccc5c4C3(C)C)/CCC2)=[N+](CCCS(=O)(=O)[O-])c2ccc3ccccc3c21`, the photoluminescence quantum yield (in CO) is 0.088.
In turn, `CC(C)(C)c1ccc2oc3nc4oc5ccc(N6c7ccccc7Sc7ccccc76)cc5c4cc3c2c1` registered a photoluminescence quantum yield (in ClC(Cl)Cl) of 0.016.
Turning to `COC(=O)c1ccc(C#Cc2ccccc2)cc1`, the photoluminescence quantum yield by setting is: (in C1CCCCC1) 0.421; (in CC#N) 0.277; (in CC(C)O) 0.398; (in CCCCCC) 0.42; (in CCCCCCCCCCCCCCCC) 0.429; (in CCCCCCCCCCCCCCCCCl) 0.441. In addition, the photoluminescence quantum yield (in CO) was 0.305.
`Cc1ccc(C2C3=C(CCCC3=O)Nc3c2c(=O)oc2ccccc32)cc1` (centres undefined) came in with a photoluminescence quantum yield (in CS(C)=O) of 0.83.
